Assay results as given in article PMC8802890, “Identification of U937^JAK3-M511I Acute Myeloid Leukemia Cells as a Sensitive Model to JAK3 Inhibitor” (Frontiers in Oncology, 2022).

Tests used:
U937 cells [1] = experiment: Cell cycle analysis by flow cytometry, U937; type: cell-based, human
[2] = test system: JAK3-STAT3/5 signal pathway in U937 cells; experiment: Western blotting of JAK3-STAT3/5 signal pathway, U937; type: cell-based, human
Ba/F3-TEL-JAK2 = experiment: CCK-8 anti-proliferation, Ba/F3-TEL-JAK2; type: cell-based, Murine; settings: Mus musculus; CCK-8, 72 h; mean ± SD
OCI-LY3 cells = experiment: Cell cycle analysis by flow cytometry, OCI-LY3; type: cell-based; settings: PF-06651600 treatment
OCI-LY3 = experiment: CCK-8 anti-proliferation, OCI-LY3; settings: read-out: IC50 Cell line OCI-LY3; CCK-8, 72 h; mean ± SD
JAK1 = target: T1, JAK1 (Homo sapiens, UniProt P23458); experiment: Z'-Lyte kinase assay, JAK1; type: biochemical
T1 construct: purchased Invitrogen (Waltham, MA, USA)

Ba/F3-TEL-JAK1 = experiment: CCK-8 anti-proliferation, Ba/F3-TEL-JAK1; type: cell-based, Murine; settings: Mus musculus, CCK-8, 72 h, mean ± SD
Jurkat = experiment: CCK-8 anti-proliferation, Jurkat; settings: read-out: IC50 Cell line Jurkat; CCK-8, 72 h; mean ± SD
MOLT-4 = experiment: CCK-8 anti-proliferation, MOLT-4; settings: read-out: IC50 Cell line MOLT-4; CCK-8, 72 h; mean ± SD
U937 cells [3] = experiment: Apoptosis assay (7-AAD / Annexin V-PE flow cytometry), U937; type: cell-based, human; settings: PF-06651600 treatment
MV4-11 = experiment: CCK-8 anti-proliferation, MV4-11; settings: read-out: IC50 Cell line MV4-11; CCK-8, 72 h; mean ± SD
Daudi = experiment: CCK-8 anti-proliferation, Daudi; settings: read-out: IC50 Cell line Daudi; CCK-8, 72 h; mean ± SD
U937 AML cells = experiment: CCK-8 anti-proliferation, U937; settings: for IC50: Homo sapiens, U-937, 72 h, read-out: IC50 Cell line U937
Ba/F3 = experiment: CCK-8 anti-proliferation, parental Ba/F3; type: cell-based, Murine; settings: Mus musculus, BaF3; parental cells, with IL-3; CCK-8, 72 h; mean ± SD
HL-60 = experiment: CCK-8 anti-proliferation, HL-60; settings: read-out: IC50 Cell line HL-60; CCK-8, 72 h; mean ± SD
[4] = test system: JAK3-STAT3/5 signal pathway in Ba/F3-JAK3 M511I cell line; experiment: Western blotting of JAK3-STAT3/5 signal pathway, Ba/F3-JAK3 M511I; type: cell-based, Murine
Excerpt: Murine Ba/F3 cells were purchased from DSMZ (Deutsche Sammlung von Mikroorganismen und Zellkulturen). Ba/F3 cell lines stably expressing JAK1 and JAK2 were self-established through electroporation of pCDNA3.1-TEL plasmids. JAK3 (M511I) was produced from pCDNA3.1 plasmids using the Amaxa Cell Line Nucleofector Kit V (Lonza, Cologne, Germany). Stable cell lines were selected by G418 (Merck, NJ, USA) and subsequent withdrawal of IL-3 (R&D, MN, USA). All Ba/F3 stable cell lines were confirmed by positive drug tests, DNA sequencing, and Western blotting (WB) analysis. Parental Ba/F3 cells were maintained in RPMI-1640 supplemented with 10% FBS (Biological Industries) and 1% penicillin-streptomycin (Biological Industries) and 10 ng/ml of IL-3, while all Ba/F3 stable cell lines were cultured in the same medium without IL-3.
Cells at a cell density of 8 × 10^5 cells/ml were treated with different concentrations of compounds or DMSO for the indicated time. The cells were then lysed with 1× SDS sample lysis buffer, as recommended by CST. […] The protein signals were detected with Amersham Imager 600 system (GE, Boston, MA, USA) using an ECL Western blotting detection kit (Thermo Fisher Scientific, Waltham, MA, USA).

Ba/F3-JAK3 (M511I) = experiment: CCK-8 anti-proliferation, Ba/F3-JAK3 (M511I); type: cell-based, Murine; settings: Mus musculus; CCK-8, 72 h; mean ± SD
JAK3 = target: T2, JAK3 (Homo sapiens, UniProt P52333); experiment: Z'-Lyte kinase assay, JAK3; type: biochemical
T2 construct: purchased Invitrogen (Waltham, MA, USA)
T2 sequence (P52333 1-1124): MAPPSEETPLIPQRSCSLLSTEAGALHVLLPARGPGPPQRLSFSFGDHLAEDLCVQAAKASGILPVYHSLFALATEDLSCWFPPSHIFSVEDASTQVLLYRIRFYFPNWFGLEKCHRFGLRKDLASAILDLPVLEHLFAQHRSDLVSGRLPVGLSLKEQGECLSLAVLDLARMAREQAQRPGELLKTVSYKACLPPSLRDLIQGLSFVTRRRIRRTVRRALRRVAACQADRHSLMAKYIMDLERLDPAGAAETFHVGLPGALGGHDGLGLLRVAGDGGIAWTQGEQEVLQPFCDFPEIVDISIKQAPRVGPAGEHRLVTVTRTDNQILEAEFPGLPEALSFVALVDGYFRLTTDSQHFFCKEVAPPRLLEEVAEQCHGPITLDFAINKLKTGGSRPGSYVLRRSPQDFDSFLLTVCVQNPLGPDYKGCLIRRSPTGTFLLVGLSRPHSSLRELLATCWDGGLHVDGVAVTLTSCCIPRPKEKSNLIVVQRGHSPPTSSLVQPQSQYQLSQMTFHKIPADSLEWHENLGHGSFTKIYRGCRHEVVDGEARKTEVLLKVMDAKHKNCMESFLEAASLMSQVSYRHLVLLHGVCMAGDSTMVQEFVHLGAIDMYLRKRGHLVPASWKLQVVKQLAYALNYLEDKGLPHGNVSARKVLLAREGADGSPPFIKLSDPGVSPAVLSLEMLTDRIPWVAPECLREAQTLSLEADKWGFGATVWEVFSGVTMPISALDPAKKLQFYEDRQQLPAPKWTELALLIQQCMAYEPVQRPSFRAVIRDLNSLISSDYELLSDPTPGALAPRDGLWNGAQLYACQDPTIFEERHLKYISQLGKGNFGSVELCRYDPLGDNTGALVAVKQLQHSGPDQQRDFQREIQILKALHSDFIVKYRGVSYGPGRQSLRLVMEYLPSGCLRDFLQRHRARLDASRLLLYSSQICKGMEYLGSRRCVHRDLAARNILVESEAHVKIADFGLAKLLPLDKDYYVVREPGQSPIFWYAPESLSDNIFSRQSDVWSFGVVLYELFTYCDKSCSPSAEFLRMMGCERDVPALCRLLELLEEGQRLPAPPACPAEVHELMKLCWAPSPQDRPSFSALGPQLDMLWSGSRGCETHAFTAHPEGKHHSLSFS

T1 sequence (P23458 whole entry): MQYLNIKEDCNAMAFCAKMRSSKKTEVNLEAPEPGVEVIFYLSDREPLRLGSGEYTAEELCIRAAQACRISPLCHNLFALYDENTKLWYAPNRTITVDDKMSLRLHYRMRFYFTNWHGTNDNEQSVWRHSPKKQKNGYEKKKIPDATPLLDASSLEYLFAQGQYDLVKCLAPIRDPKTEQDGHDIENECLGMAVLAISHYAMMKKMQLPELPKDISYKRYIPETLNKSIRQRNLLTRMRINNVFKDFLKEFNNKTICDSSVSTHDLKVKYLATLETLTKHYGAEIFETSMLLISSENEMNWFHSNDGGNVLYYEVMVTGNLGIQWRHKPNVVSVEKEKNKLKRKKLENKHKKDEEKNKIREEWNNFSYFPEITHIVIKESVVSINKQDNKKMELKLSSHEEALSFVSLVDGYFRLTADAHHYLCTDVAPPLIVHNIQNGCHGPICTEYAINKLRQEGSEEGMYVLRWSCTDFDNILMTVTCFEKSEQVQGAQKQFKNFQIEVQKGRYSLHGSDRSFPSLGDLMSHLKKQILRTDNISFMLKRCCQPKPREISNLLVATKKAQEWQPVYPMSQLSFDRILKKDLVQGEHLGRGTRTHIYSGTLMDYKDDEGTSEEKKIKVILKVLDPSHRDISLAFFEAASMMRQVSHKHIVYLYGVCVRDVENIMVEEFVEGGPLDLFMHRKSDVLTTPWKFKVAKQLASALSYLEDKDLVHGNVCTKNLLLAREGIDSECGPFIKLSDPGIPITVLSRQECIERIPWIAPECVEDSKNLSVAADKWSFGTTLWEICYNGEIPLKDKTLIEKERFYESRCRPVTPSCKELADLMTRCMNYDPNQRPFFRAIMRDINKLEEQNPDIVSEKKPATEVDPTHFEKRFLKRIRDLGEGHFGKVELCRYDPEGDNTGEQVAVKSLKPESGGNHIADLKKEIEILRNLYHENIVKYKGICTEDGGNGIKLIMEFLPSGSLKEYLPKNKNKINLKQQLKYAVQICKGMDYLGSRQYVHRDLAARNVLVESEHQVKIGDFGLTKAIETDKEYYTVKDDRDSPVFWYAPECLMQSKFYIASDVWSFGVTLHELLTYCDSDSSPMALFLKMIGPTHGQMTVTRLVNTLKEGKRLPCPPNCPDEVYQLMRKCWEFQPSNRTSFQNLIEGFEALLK

| Compound | IC50 (Ba/F3-TEL-JAK2) | IC50 (OCI-LY3) | IC50 (Ba/F3-TEL-JAK1) | IC50 (Jurkat) | IC50 (MOLT-4) | IC50 (MV4-11) | IC50 (Daudi) | IC50 (U937 AML cells) | IC50 (Ba/F3) | IC50 (HL-60) | IC50 (Ba/F3-JAK3 (M511I)) | antiproliferative activity against U937 cells (U937 AML cells) | JAK3 kinase inhibition (JAK3) | other results |
| --- | --- | --- | --- | --- | --- | --- | --- | --- | --- | --- | --- | --- | --- | --- |
| Si-JAK3: Synthetic JAK3 small interfering RNA from RiboBio; si-JAK3: 5′-GCAGACACTTAGCTTGGAA-3′ (chemistry not fully specified) | – | – | – | – | – | – | – | – | – | – | – | – | – | cell cycle arrest (U937 cells [1]; JAK3 siRNA): induced G0/G1 phase arrest; activation of JAK3-STAT3/5 signal pathway ([2]; JAK3 siRNA for 72 h): suppressed activation of JAK3-STAT3/5 signal pathway |
| C=CC(=O)N1C[C@H](Nc2ncnc3[nH]ccc23)CC[C@@H]1C [PF-06651600, ritlecitinib] | > 10 µM | > 10 µM | > 10 µM | > 10 µM | > 10 µM | > 10 µM | > 10 µM | 0.027 ± 0.004 µM | > 10 µM | > 10 µM | 0.03 ± 0.01 µM | – | – | cell cycle arrest (U937 cells [1]; PF-06651600 treatment): dose-dependent G0/G1 phase cell cycle arrest; cell fate or phenotypes (OCI-LY3 cells): did not obviously affect the cell fate or the phenotypes; potency against JAK1 less than against JAK3 (JAK1): approximately 3,000 fold; apoptosis (U937 cells [3]): inducing apoptosis only barely; activation of JAK3 and the downstream signals [2]: potently suppressed the activation of JAK3 and the downstream signals in a dose-dependent manner; downstream signaling factors of JAK3 [4]: inhibited the downstream signaling factors of JAK3; phosphorylation of JAK3 [4]: enhanced the phosphorylation of JAK3 |
| NC(=O)c1cnc2[nH]ccc2c1N[C@@H]1[C@@H]2CC3C[C@H]1C[C@@](O)(C3)C2 [Peficitinib] | 1.29 ± 0.09 µM | 3.42 ± 0.01 µM | 0.6 ± 0.08 µM | 2.32 ± 0.82 µM | 2.22 ± 0.08 µM | 9.19 ± 0.98 µM | 5.82 ± 0.15 µM | 0.09 ± 0.02 µM | 1.56 ± 0.09 µM | 4.93 ± 1.22 µM | 0.1 ± 0.05 µM | – | – | – |
| Cc1cnc(Nc2ccc(OCCN3CCCC3)cc2)nc1Nc1cccc(S(=O)(=O)NC(C)(C)C)c1 [Fedratinib] | 1.83 ± 0.06 µM | 3.18 ± 0.13 µM | 1.96 ± 0.24 µM | 1.42 ± 0.32 µM | 2.72 ± 0.54 µM | > 10 µM | 3.92 ± 0.21 µM | 2.53 ± 0.17 µM | 3.47 ± 0.33 µM | 2.44 ± 0.16 µM | 2.84 ± 0.39 µM | micromolar IC50 values | weakly suppressed the activity of JAK3 | – |
| N#CC[C@H](C1CCCC1)n1cc(-c2ncnc3[nH]ccc23)cn1 [Ruxolitinib] | – | > 10 µM | – | > 10 µM | > 10 µM | > 10 µM | > 10 µM | 0.7 ± 0.11 µM | – | > 10 µM | – | sub-micromole antiproliferative activity | reasonable inhibition of JAK3 | – |
| CC[C@@H]1CN(C(=O)NCC(F)(F)F)C[C@@H]1c1cnc2cnc3[nH]ccc3n12 [Upadacitinib] | 0.18 ± 0.01 µM | > 10 µM | 0.075 ± 0.008 µM | > 10 µM | > 10 µM | > 10 µM | > 10 µM | 0.25 ± 0.03 µM | 0.9 ± 0.12 µM | > 10 µM | 0.098 ± 0.047 µM | – | – | – |
| CCS(=O)(=O)N1CC(CC#N)(n2cc(-c3ncnc4[nH]ccc34)cn2)C1 [Baricitinib] | – | – | – | – | – | – | – | – | – | – | – | micromolar IC50 values | weakly suppressed the activity of JAK3 | – |
| O=C(Nc1nc2cccc(-c3ccc(CN4CCS(=O)(=O)CC4)cc3)n2n1)C1CC1 [Filgotinib] | > 10 µM | > 10 µM | > 10 µM | > 10 µM | > 10 µM | > 10 µM | > 10 µM | > 10 µM | > 10 µM | > 10 µM | 7.19 ± 2.5 µM | almost totally inactive | did not obviously suppress JAK3 kinase activity | – |
